Experimental data from patent US20110237538A1, “TREATMENT OF LYSOSOMAL STORAGE DISORDERS AND OTHER PROTEOSTATIC DISEASES” (SUMMIT CORPORATION PLC, priority 2008, published 2011).
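Note: fluorometric rate of 4MU product release read at 360 nm excitation and 450 nm emission, reactions run at 37 °C in citric phosphate buffer.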

The molecules below were run against T1, wild type (wt) lysosomal alpha-glucosidase (Homo sapiens, UniProt P10253) (assay: alpha-glucosidase activity assay in HL60 lysate (4MU-α-D-glc)). Settings: at a concentration of 100 uM, 0.5 mM 4MU-α-D-glc, pH 4.5.
T1 construct: The lysates were used as a source for wild type (wt) lysosomal alpha-glucosidase; endogenous in cells; host or cells: HL60 (ECACC No. 98070106) lysate
Type: biochemical
With `OC[C@@H]1[C@@H](O)[C@H](O)[C@@H](CO)N1Cc1ccc(-c2ccccc2)cc1` [Compound 558, (2R,3R,4R,5R)-1-(biphenyl-4-ylmethyl)-2,5-bis(hydroxymethyl)pyrrolidine-3,4-diol] the inhibition at 100 µM was > 50%. In the case of `O[C@H]1[C@H](O)[C@@H](O)CN2C[C@H](O)[C@@H](O)[C@H]12` [Compound 352, (1S,2S,6S,7R,8R,8aR)-octahydroindolizine-1,2,6,7,8-pentaol], the inhibition at 100 µM is reported as > 50%. `OCC1OC(O[C@H]2CN[C@H](CO)[C@@H](O)[C@@H]2O)C(O)C(O)C1O` (stereo partly drawn) [Compound 121, 2-((3S,4S,5R,6R)-4,5-dihydroxy-6-(hydroxymethyl)piperidin-3-yloxy)-6-(hydroxymethyl)tetrahydro-2H-pyran-3,4,5-triol] was tested, and the inhibition at 100 µM was > 50%. `CCCC(=O)O[C@H]1CN2CC[C@H](O)C2[C@@H](O)[C@@H]1O` (stereo partly drawn) [Compound 46, (1S,6S,7S,8R)-1,7,8-trihydroxyoctahydroindolizin-6-yl butyrate] was tested, and the inhibition at 100 µM was > 50%. `CN1[C@H](CO)[C@@H](O)[C@H](O)[C@H]1CO` [Compound 515, (2R,3R,4R,5R)-2,5-bis(hydroxymethyl)-1-methylpyrrolidine-3,4-diol] was tested, and the inhibition at 100 µM was > 50%. In the case of `CCCCN1CCC[C@@H](CO)C1` [Compound 741, (R)-(1-butylpiperidin-3-yl)methanol], the inhibition at 100 µM is reported as > 50%. With `OC[C@@H]1[C@@H](O)[C@H](O)[C@@H](O)CN1CCN1CCOCC1` [Compound 509, (2R,3R,4R,5S)-2-(hydroxymethyl)-1-(2-morpholinoethyl)piperidine-3,4,5-triol] the inhibition at 100 µM was > 50%. With `CC[C@@H]1N[C@@H](CO)[C@H](O)[C@H]1O` [Compound 732, (2S,3S,4S,5S)-2-ethyl-5-(hydroxymethyl)pyrrolidine-3,4-diol] the inhibition at 100 µM was > 50%. In the case of `CCCC[C@@H]1N[C@@H](CO)[C@H](O)[C@H]1O` [Compound 728, (2S,3S,4S,5S)-2-butyl-5-(hydroxymethyl)pyrrolidine-3,4-diol], the inhibition at 100 µM is reported as > 50%. For `CCCC[C@H]1N[C@H](CO)[C@@H](O)[C@@H](O)[C@@H]1O` [Compound 488, (2R,3R,4S,5R,6R)-2-butyl-6-(hydroxymethyl)piperidine-3,4,5-triol], the inhibition at 100 µM was > 50%. With `C[C@H]1NC[C@H](O)[C@@H](O)[C@@H]1O` [Compound 388, (2R,3R,4R,5S)-2-methylpiperidine-3,4,5-triol] the inhibition at 100 µM was > 50%. `OC[C@@H]1[C@@H](O)[C@H](O)[C@@H](O)CN1Cc1ccccc1` [Compound 510, (2R,3R,4R,5S)-1-benzyl-2-(hydroxymethyl)piperidine-3,4,5-triol] was tested, and the inhibition at 100 µM was > 50%. `CCCCN1C[C@H](O)[C@@H](O)[C@H](O)[C@H]1CO` [Compound 118, (2R,3R,4R,5S)-1-butyl-2-(hydroxymethyl)piperidine-3,4,5-triol] was tested, and the inhibition at 100 µM was > 50%. With `OC[C@@H]1N[C@@H](CO)[C@H](O)[C@H]1O` [Compound 729, (2S,3S,4S,5S)-2,5-bis(hydroxymethyl)pyrrolidine-3,4-diol] the inhibition at 100 µM was > 50%. `OC[C@H]1NC[C@H](O)[C@@H](O)[C@@H]1O` [Compound 193, (2R,3R,4R,5S)-2-(hydroxymethyl)piperidine-3,4,5-triol] was tested, and the inhibition at 100 µM was > 50%. For `OCC1OC(O[C@H]2CN3C[C@H](O)[C@@H](O)[C@H](O)[C@H]3[C@H]2O)C(O)C(O)C1O` (stereo partly drawn) [Compound 41, (1R,2S,6S,7R,8R,8aS)-2-(3,4,5-trihydroxy-6-(hydroxymethyl)tetrahydro-2H-pyran-2-yloxy)octahydroindolizine-1,6,7,8-tetraol], the inhibition at 100 µM was > 50%. `OC[C@@H]1NC[C@@H](O)[C@H](O)[C@H]1O` [Compound 221, (2S,3S,4S,5R)-2-(hydroxymethyl)piperidine-3,4,5-triol] was tested, and the inhibition at 100 µM was > 50%. `CCCCN1C[C@H](O)[C@H](O)[C@@H]1[C@@H](O)[C@H](O)[C@H](O)CO` [Compound 531, (1R,2S,3R)-1-((2R,3R,4S)-1butyl-3,4-dihydroxypyrrolidin-2-yl)butane-1,2,3,4-tetraol] was tested, and the inhibition at 100 µM was > 50%.
